Data set [1] deals with NADPH oxidase. In words: Inhibitory activity on ROS production derived from NADPH oxidase (HUVECs, nitrotetrazolium blue). To be noted: 1.0 μM test compound, 25 mM glucose, 200 μM NADPH, 2 hours. It is filed as cell-based, Human. The protocol:
Test 1: Inhibitory Activity on ROS Production Derived from NADPH Oxidase
This activity was measured by using Human Umbilical Vein Endothelial Cells (HUVECs). The test method is as follows.
3×10^4 cells/well (100 μL) of HUVECs were seeded into a 96-well plate coated with collagen. The culture medium was MCDB131 medium containing 10% fetal bovine serum, 2 mM glutamine, 100 U/mL penicillin, 100 U/mL streptomycin, and 10 ng/mL recombinant human basic-FGF. On the next day, the culture medium was removed by an aspirator, and 100 μL/well of phosphate buffered saline containing 25 mM glucose, 200 μM NADPH, 0.2% nitrotetrazolium blue, and test compounds followed by culturing at 37° C. Nitrotetrazolium blue reacts with intracellularly produced ROS and turns into a water-insoluble blue pigment. After 2 hours, the supernatant was discarded, and the wells were washed three times with phosphate buffered physiological saline. Then, 100 μL/well of 90% DMSO water containing 0.04M sodium hydroxide was added to each well to completely dissolve the pigment, and an absorbance at a wavelength of 715 nm was measured. By taking an absorbance with no addition of a test compound as A, an absorbance […], and an absorbance with addition of glucose, NADPH and a test compound as C, ROS production inhibitory rate was calculated according to the following equation. Inhibition rate (%)=[…]
Abbreviation “Ex” in the table represents Example Compound No. which will follow, and abbreviation “Inh” represents an ROS production inhibition rate. It was confirmed that the compounds of the formula (I) of the present invention have an excellent ROS production inhibitory activity.

Data set [2] in a line: Oral glucose tolerance test using mice. Particulars: Mus musculus, 0.5 h, 3 mg/kg orally 5 minutes prior to oral glucose loading (2 g/kg), 30 minutes after glucose loading, relative to control group, male ICR or C57BL/6 J mice, read-out: blood glucose-lowering rate. It is filed as in vivo. The source says:
Test 2: Oral Glucose Tolerance Test Using Mice
This test is intended to evaluate an inhibitory action of a test compound on elevation of the blood glucose level after glucose loading, using mice. A test method is described hereinafter.
Male ICR or C57BL/6 J mice (6 weeks old, available from CLEA JAPAN, Inc.) pre-bred for one week were fasted overnight and used as test animals. A test compound was suspended in 10% PEG-60 Hydrogenated Castor Oil (HCO-60) aqueous solution, and was orally administered (3 mg/kg) to animals 5 minutes prior to oral glucose loading (2 g/kg). The control group was given a 10% HCO-60 aqueous solution. According to the following equation, a blood glucose-lowering rate (%) at 30 minutes after glucose loading was calculated for the test compound-treated group relative to the control group. An increase in the blood glucose level of the test compound-treated group and an increase in the blood glucose level of the control group were taken as A and B, respectively. Blood glucose-lowering rate (%)=100−[(A/B)×100]

In the case of `Cc1c(COC(=O)NCCCc2ccccc2)[nH]c2ccccc2c1=O` [Ex 284], in data set [1], the “Inh(%) ROS production inhibition rate” value was determined as 64.2 ± 0.1%. In addition, the inhibition in vivo at 3 mg/kg in data set [2] lay within 70 to 105%.

Regarding `Cc1c(CO[C@H]2CC[C@H](NC(=O)CC(C)(C)O)CC2)[nH]c2ccccc2c1=O` [Ex 248], the inhibition in vivo at 3 mg/kg in data set [2] turned out to be 89%.

For `Cc1c(COc2cccc(OCCC(C)(C)O)c2)[nH]c2ccccc2c1=O` [Ex 141], the inhibition in vivo at 3 mg/kg in data set [2] was in the range of 70 to 105%.

On to `Cc1c(COc2cc(OCCC(C)(C)O)ccn2)[nH]c2ccccc2c1=O` [Example 4, 2-({[4-(3-hydroxy-3-methylbutoxy)pyridin-2-yl]oxy}methyl)-3-methylquinolin-4(1H)-one], for which the melting point (in general, the temperature, or range, at which the solid turns liquid) was 127 to 130 °C. For the same compound, the “Inh(%) ROS production inhibition rate” value in data set [1] is listed as 84.7 ± 2.1%. Besides, in data set [2], the inhibition in vivo at 3 mg/kg fell in the range of 70 to 105%.

With `Cc1c(COc2cc(OCC3CCOCC3)ccn2)[nH]c2ccc(F)cc2c1=O` [Ex 153], the inhibition in vivo at 3 mg/kg in data set [2] lay within 70 to 105%.

In the case of `Cc1c(COc2cc(OCCC3CCOCC3)ccn2)[nH]c2ccccc2c1=O` [Example 8, 3-methyl-2-[({4-[2-(tetrahydro-2H-pyran-4-yl)ethoxy]pyridin-2-yl}oxy)methyl]quinolin-4(1H)-one], the melting point fell in the range of 137 to 138 °C. Further, the “Inh(%) ROS production inhibition rate” value in data set [1] was 91.5 ± 4.7%. The inhibition in vivo at 3 mg/kg in data set [2] fell in the range of 70 to 105%.

Turning to `COC(C)(C)CCOc1ccnc(OCc2[nH]c3ccccc3c(=O)c2C)c1` [Ex 186], in data set [2], the inhibition in vivo at 3 mg/kg is 70 to 105%.

The values are drawn from patent US8367702B2, “Quinolone derivative” (Astellas Pharma Inc., priority 2007, dated 2013).
